Experimental data published in patent US20090028798A1, “METHOD FOR DETERMINING REDOX STATUS OF A TISSUE” (Government of the USA, represented by the Secretary, …, priority 2005, published 2009).
Marks after values point to notes of the source that are not given here.

Columns and labels:
[1] = Decay rate of nitroxyl contrast agent by 300 MHz CW EPR imaging (EPRI); type: in vivo, C3H mice; conditions: 1.8 μmol/g b.w. i.v., mean ± SD
Protocol: (§1) Female C3H mice were supplied by the Frederick Cancer Research Center, Animal Production (Frederick, Md.). Animals, received at six weeks of age, were housed five per cage in climate controlled circadian rhythm-adjusted rooms and were allowed food and water ad libitum. Experiments were carried out in compliance with the Guide for the Care and Use of Laboratory Animal Resources (1996), National Research Council, and approved by the National Cancer Institute Animal Care and Use Committee. Experiments were performed within 4 weeks of their arrival at the facility. Their body weight measured before the experiments was in the range 25-28 g. A squamous cell carcinoma was implanted and grown on the right hind leg for a week.
Mice were anesthetized by isoflurane (1.5%) in medical air (700 mL/min). Both tumor and normal legs were placed on special mouse holder and fixed with adhesive tapes on the divider between both legs. […]
(§2) The EPRI and MRI data were analyzed using the ImageJ software package (a public domain Java image processing program inspired by NIH Image that can be extended by plug-ins, http://rsb.info.nih.gov/ij/). T1 and T2 mappings were calculated using a plug-in (MRI analysis calculator, Karl Schmidt, HypX Laboratory, Brigham and Women's Hospital) available in ImageJ.
A time course of CW EPR imaging after injection of a nitroxyl contrast agent was determined. […]

[2] = Relaxation time and relaxivity of nitroxyl contrast agents compared with Gd-DTPA; type: physicochemical
Description: The present invention is predicated on the difference in reducing capability and provides a method of determining the redox status of a region of interest in an animal tissue, such as a tumor. By determining the redox status of a tumor it is possible to not only diagnose a tumor due to its enhanced reduction of intracellular nitroxide contrast agent, but also to determine appropriate radiation treatment fields spatially to deliver therapeutic doses of radiation, and to determine appropriate timing sequences after the administration of a nitroxide contrast agent such that the maximum difference between normal and tumor tissue with respect to the radioprotective form of the nitroxide is present in the normal tissue, thereby limiting collateral damage to the normal tissue. The T1-contrast afforded by the nitroxide class of compounds, by virtue of their paramagnetic relaxivity which is in the range of 0.2 (mM s)−1 makes it possible to use standard MRI scanners to obtain the redox information in the inventive method. Typical relaxivity and relaxation times are shown for various nitroxyl contrast agents compared with a standard contrast agent, Gd-DTPA, in Table 1. […] Without being bound to any particular theory, it is believed that the T1 relaxation of protons could be affected by paramagnetic electron spin. Therefore, a change of MRI contrast before and after administration of a nitroxyl spin probe (i.e., a nitroxide contrast agent) should reflect the amount of nitroxyl in addition to providing anatomical mapping simultaneously. Such anatomical mapping provides the ability to diagnose the existence of a tumor, determine the status of a tumor, determine borders of a radiation treatment field, determine appropriate timing and dosage for radiation treatment, as well as determining the efficacy of radiation and other forms of cancer treatment.

[3] = Decay rate of nitroxyl contrast agent by in vivo 700 MHz EPR spectroscopy with surface coil (EPRS); design: species or system C3H mice; conditions: linear part 7.5-20 min, mean ± SD
Protocol: as §1
In vivo EPR spectroscopic measurement of the nitroxyl probe were obtained. Mice were anesthetized and placed on special mouse holder and fixed with adhesive tapes. The single loop surface coil (7.3 mm i.d.) was placed on the normal or the tumor leg. EPR signal was measured by CW EPR at 700 MHz. EPR conditions were as follows: microwave frequency=700 MHz, microwave power=10 mW, field modulation frequency=13.5 kHz, field modulation amplitude=0.3 Gauss, time constant=0.03 s, sweep width=60 Gauss, scan time=8 s. The center line of the triplet was repeatedly obtained every 20 s for 20 min. […]

[4] = Decay rate of nitroxyl contrast agent by 4.7 T SPGR T1-weighted MRI; type: in vivo, C3H mice; conditions: 1.5 μmol/g b.w. i.v., mean ± SD
Protocol: as §1
MRI and pulse sequence measurements were also obtained. MRI measurements were performed at 4.7 T controlled with ParaVision®3.0.1 (Bruker BioSpin MRI GmbH, Rheinstetten, Germany). […]
as §2, with “ImageJ. […]” for “ImageJ.”

[5] = Nitroxyl radical decay rate in tissues, from change in MRI contrast over time; type: in vivo, mice; conditions: for Decay Rate: MRI, mean ± SD
Protocol: In the inventive method, the amount of reduced nitroxyl contrast agent (i.e., hydroxylamine) in the animal tissue is determined. This determination can be made using any suitable method. For example, MRI contrast changes and the difference in concentration of a nitroxyl contrast agent, such as 3CP, show linearity in low concentration level (i.e., below 1.5 mM). To perform T1 and T2 mapping, spin echo images can be obtained using a multi-slice multi-echo (MSME) sequence. For instance, a time sequence of the total number of SPGR images may be determined. The images can then be averaged and each image may be divided by the averaged initial image. Semi-logarithmic values of the averaged image intensity in a given region of interest can be plotted versus time after injection. The change in intensity can be determined at one or more time points after injection of a nitroxyl contrast agent. For example, changes in intensity may be made every 10 s, 20 s, 30, 40 s, 50 s, or every 1, 5, 7, 10, 15, 20 minutes, or any integer in between, after injection of a nitroxyl contrast agent. A decay rate can be obtained from the linear part of the slope after peak by the least squares method. A sample calculation of a decay rate using nitroxyl contrast agent 3CP is as follows: The spoiled gradient echo (SPGR) image intensity Mt at time t after nitroxyl contrast agent injection can be calculated using the equation:
Mt=M0×[1−EXP(−TR/T1t)]×EXP(−TE/T2)×{sin α/[1−cos α×EXP(−TR/T1t)]}.
In the above equation, MO is proton density, and a is flip angle. Tissue (or sample) T1 can change with particular time t (min.) (T1t) depending on the concentration of the 3CP (Ct). T1t[…]1/R1t and R1t=1/T1i+r1×Ct, where R1t is T1 relaxation […] t, the relaxivity r1 of 3CP is 0.17 mM^−1s-1, T1i is the initial T1 base line (intrinsic tissue T1). Ct (mM), which is the first concentration of 3CP at particular time t (min.), is calculated by assuming first order decay as indicated by the equation Ct=Cmax×EXP([…]), where ktrue is the given decay rate. Logarithmic values of the intensity change from the baseline (ie. ΔM % t=(Mt/Mi−1)×100 or ΔMt=Mt−Mi), can be plotted with time t. Mi is the intrinsic signal intensity of the tissue (or sample) calculated as Ct=0. The decay constant kMRI can be obtained from the slopes of the plots ΔM % t and ΔMt by least square fit.
Typical decay rates, determined by a change in intensity over time, are shown in Table 1 and FIG. 1 for nitroxyl contrast agents Tempol, Carbamoyl-PROXYL, Carboxyl-PROXYL in normal tissue, tumor, blood, and left and right kidney tissues. These decay rates may then be used to determine the redox status of the tissue. When a decay rate is calculated pixel-wise, redox mapping can be obtained. That is, regions showing a faster rate of decay correspond to hypoxic regions.

Question: What does the source list for `CC1(C)CC(C(N)=O)C(C)(C)N1[O]` (stereo not drawn) [Carbamoyl-PROXYL, 3-carbamoyl-2,2,5,5-tetramethyl-1-pyrrolidine-N-oxyl]?
Answer: Normal Leg Decay Rate ([1]; normal leg): 0.0356 ± 0.0122 min⁻¹; Tumor Leg Decay Rate ([1]; squamous cell carcinoma leg): 0.0468 ± 0.0086 min⁻¹; Relaxivity [2]: 0.171 mM⁻¹ s⁻¹; relaxivity r1 ([2]; value used in sample decay-rate calculation): 0.17 mM⁻¹ s⁻¹; Normal Leg Decay Rate ([3]; normal leg): 0.0551 ± 0.0059 min⁻¹; Tumor Leg Decay Rate ([3]; squamous cell carcinoma leg): 0.0669 ± 0.0144* min^−1; Normal Leg Decay Rate ([4]; normal leg): 0.0766 ± 0.0070 min⁻¹; Tumor Leg Decay Rate ([4]; squamous cell carcinoma leg): 0.1073 ± 0.0057* min^−1

Question: Which Relaxivity [2] does the source give for `CC1(C)CC(C(=O)O)C(C)(C)N1[O]` (stereo not drawn) [Carboxy-PROXYL] here?
Answer: Its Relaxivity is 0.180 mM⁻¹ s⁻¹.

Question: With `CC1(C)CC(O)CC(C)(C)N1[O]` [Tempol, 2,2,6,6-tetramethyl-4-piperidinol-N-oxyl] as the molecule, how does the “Decay Rate” value ([5]; Blood) read?
Answer: Its value is 1.025 ± 0.213 min⁻¹.

Question: What about the “Decay Rate” value ([5]; Left Kidney) of the same molecule?
Answer: The value was 1.470 ± 0.199 min⁻¹.

Question: And the “Decay Rate” value ([5]; Normal Leg)?
Answer: The value was 0.319 ± 0.025 min⁻¹.

Question: What about the “Decay Rate” value ([5]; Right Kidney) of the same molecule?
Answer: The value was 1.160 ± 0.333 min⁻¹.

Question: What about the “Decay Rate” value ([5]; Tumor Leg) of the same molecule?
Answer: The value was 1.095 ± 0.203** min^−1.

Question: And the “rate of decay, tumor versus normal tissue” value ([5]; in vivo MRI, FIG. 2)?
Answer: The value was “greater in tumor versus normal tissue”.
